According to PubChem BioAssay AID2060604 (Molecular Pharmacology Branch, DTP, NCI, 2025):
pIC50: −log10 of the molar value.

Test system: 379773-124-R-J2-PDC complex spheroids, viability % test/control
Assay: Anticancer human tumor 379773-124-R-J2-PDC patient-derived endometrial carcinoma cell line growth inhibition [CLK]
Conditions: for pIC50: curve of first compound; for viability, T/C: stronger effect = lower value
Method in brief: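 Patient-derived tumor cells grown as complex spheroids with HUVEC endothelial cells and mesenchymal stem cells, treated with drug combinations. Concentrations descend in half-log steps from near clinical Cmax, or from 10 microM if Cmax unknown.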

[1] = second compound 0.0316 µM, first compound 0.0316 µM
[2] = second compound 0.0316 µM, first compound 0.1 µM
[3] = second compound 0.0316 µM, first compound 0.316 µM
[4] = second compound 0.0316 µM, first compound 1 µM
[5] = second compound 0.1 µM, first compound 0.0316 µM
[6] = second compound 0.1 µM, first compound 0.1 µM
[7] = second compound 0.1 µM, first compound 0.316 µM
[8] = second compound 0.1 µM, first compound 1 µM
[9] = second compound 0.316 µM, first compound 0.0316 µM
[10] = second compound 0.316 µM, first compound 0.1 µM
[11] = second compound 0.316 µM, first compound 0.316 µM
[12] = second compound 0.316 µM, first compound 1 µM
[13] = second compound 1 µM, first compound 0.0316 µM
[14] = second compound 1 µM, first compound 0.1 µM
[15] = second compound 1 µM, first compound 0.316 µM
[16] = second compound 1 µM, first compound 1 µM
[17] = second compound 3.16 µM, first compound 0.0316 µM
[18] = second compound 3.16 µM, first compound 0.1 µM
[19] = second compound 3.16 µM, first compound 0.316 µM
[20] = second compound 3.16 µM, first compound 1 µM
[21] = second compound 10 µM, first compound 0.0316 µM
[22] = second compound 10 µM, first compound 0.1 µM
[23] = second compound 10 µM, first compound 0.316 µM
[24] = second compound 10 µM, first compound 1 µM
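Also: compound exposure lasted seven days before the viability readout.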
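For viability, T/C in this document: 100% = DMSO vehicle control wells.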

SMILES: CC(=O)O[C@H]1C(=O)[C@@]2(C)[C@H]([C@H](OC(=O)c3ccccc3)[C@]3(O)C[C@H](OC(=O)[C@H](O)[C@@H](NC(=O)c4ccccc4)c4ccccc4)C(C)=C1C3(C)C)[C@]1(OC(C)=O)CO[C@@H]1C[C@@H]2O + CN1CCN(c2cc(C(=O)Nc3cc4cc(-c5cnn(C)c5)ccc4cn3)ccn2)CC1
- pIC50 (second compound 0.0316 µM): > 7.50
- pIC50 (second compound 0.1 µM): > 7.50
- pIC50 (second compound 0.316 µM): > 7.50
- pIC50 (second compound 1 µM): > 7.50
- pIC50 (second compound 3.16 µM): > 7.50
- pIC50 (second compound 10 µM): > 7.50
- viability, T/C [1]: 7.03%
- viability, T/C [2]: 7.96%
- viability, T/C [3]: 7.37%
- viability, T/C [4]: 6.76%
- viability, T/C (second compound 0.0316 µM, first compound 3.16 µM): 6.08%
- viability, T/C (second compound 0.0316 µM, first compound 10 µM): 6.39%
- viability, T/C [5]: 5.82%
- viability, T/C [6]: 7.72%
- viability, T/C [7]: 7.07%
- viability, T/C [8]: 6.35%
- viability, T/C (second compound 0.1 µM, first compound 3.16 µM): 6.66%
- viability, T/C (second compound 0.1 µM, first compound 10 µM): 8.15%
- viability, T/C [9]: 5.25%
- viability, T/C [10]: 5.87%
- viability, T/C [11]: 5.15%
- viability, T/C [12]: 5.39%
- viability, T/C (second compound 0.316 µM, first compound 3.16 µM): 7.05%
- viability, T/C (second compound 0.316 µM, first compound 10 µM): 7.94%
- viability, T/C [13]: 0.07%
- viability, T/C [14]: 0.08%
- viability, T/C [15]: 0.18%
- viability, T/C [16]: 1.42%
- viability, T/C (second compound 1 µM, first compound 3.16 µM): 0.21%
- viability, T/C (second compound 1 µM, first compound 10 µM): 0.05%
- viability, T/C [17]: 0.21%
- viability, T/C [18]: 0.13%
- viability, T/C [19]: 2.68%
- viability, T/C [20]: 0.06%
- viability, T/C (second compound 3.16 µM, first compound 3.16 µM): 0.46%
- viability, T/C (second compound 3.16 µM, first compound 10 µM): 0.1%
- viability, T/C [21]: 0.05%
- viability, T/C [22]: 1.24%
- viability, T/C [23]: 0.14%
- viability, T/C [24]: 0.91%
- viability, T/C (second compound 10 µM, first compound 3.16 µM): 0.48%
- viability, T/C (second compound 10 µM, first compound 10 µM): 0.46%

SMILES: CCc1c2c(nc3ccc(O)cc13)-c1cc3c(c(=O)n1C2)COC(=O)[C@]3(O)CC + CN1CCN(c2cc(C(=O)Nc3cc4cc(-c5cnn(C)c5)ccc4cn3)ccn2)CC1
- pIC50 (second compound 0.0316 µM): > 8.50
- pIC50 (second compound 0.1 µM): > 8.50
- pIC50 (second compound 0.316 µM): > 8.50
- pIC50 (second compound 1 µM): > 8.50
- pIC50 (second compound 3.16 µM): > 8.50
- pIC50 (second compound 10 µM): > 8.50
- viability, T/C (second compound 0.0316 µM, first compound 0.00316 µM): 14.1%
- viability, T/C (second compound 0.0316 µM, first compound 0.01 µM): 8.12%
- viability, T/C [1]: 3.67%
- viability, T/C [2]: 2.7%
- viability, T/C [3]: 0.99%
- viability, T/C [4]: 0.98%
- viability, T/C (second compound 0.1 µM, first compound 0.00316 µM): 10.7%
- viability, T/C (second compound 0.1 µM, first compound 0.01 µM): 7.87%
- viability, T/C [5]: 5.68%
- viability, T/C [6]: 1.93%
- viability, T/C [7]: 1%
- viability, T/C [8]: 0.47%
- viability, T/C (second compound 0.316 µM, first compound 0.00316 µM): 10.6%
- viability, T/C (second compound 0.316 µM, first compound 0.01 µM): 9.07%
- viability, T/C [9]: 3.15%
- viability, T/C [10]: 1.65%
- viability, T/C [11]: 0.34%
- viability, T/C [12]: 0.08%
- viability, T/C (second compound 1 µM, first compound 0.00316 µM): 0.11%
- viability, T/C (second compound 1 µM, first compound 0.01 µM): 0.18%
- viability, T/C [13]: 0.1%
- viability, T/C [14]: 0.34%
- viability, T/C [15]: 0.05%
- viability, T/C [16]: 0.05%
- viability, T/C (second compound 3.16 µM, first compound 0.00316 µM): 0.07%
- viability, T/C (second compound 3.16 µM, first compound 0.01 µM): 0.08%
- viability, T/C [17]: 0.13%
- viability, T/C [18]: 0.73%
- viability, T/C [19]: 0.09%
- viability, T/C [20]: 0.08%
- viability, T/C (second compound 10 µM, first compound 0.00316 µM): 0.45%
- viability, T/C (second compound 10 µM, first compound 0.01 µM): 0.11%
- viability, T/C [21]: 0.2%
- viability, T/C [22]: 1.89%
- viability, T/C [23]: 0.75%
- viability, T/C [24]: 0.18%
